# According to BindingDB's records for doi:10.1016/j.bmcl.2003.09.094 (Cv Therapeutics, 2003):
# Target: Adenosine receptor A1 (hamster)
# Assay: Binding affinity for adenosine A1 receptor determined using hamster DDT1 cell membranes with [3H]CCPA as radioligand
row,Ki [nM],Structure (SMILES)
1,50,"CCCNC(=S)OC[C@H]1OC(n2cnc3c(NC4CCOC4)ncnc32)[C@H](O)[C@@H]1O (stereo partly drawn) [Propyl-thiocarbamic acid (2R,3S,4R)-3,4-dihydroxy-5-{6-[(R)-(tetrahydro-furan-3-yl)amino]-purin-9-yl}-tetrahydro-furan-2-ylmethyl ester]"
2,167,"CCNC(=O)OC[C@H]1OC(n2cnc3c(NC4CCOC4)ncnc32)[C@H](O)[C@@H]1O (stereo partly drawn) [Ethyl-carbamic acid (2R,3S,4R)-3,4-dihydroxy-5-{6-[(R)-(tetrahydro-furan-3-yl)amino]-purin-9-yl}-tetrahydro-furan-2-ylmethyl ester]"
3,35,"C=CCNC(=S)OC[C@H]1OC(n2cnc3c(NC4CCOC4)ncnc32)[C@H](O)[C@@H]1O (stereo partly drawn) [Allyl-thiocarbamic acid (2R,3S,4R)-3,4-dihydroxy-5-{6-[(R)-(tetrahydro-furan-3-yl)amino]-purin-9-yl}-tetrahydro-furan-2-ylmethyl ester]"
4,205,"CN(C)C(=S)OC[C@H]1OC(n2cnc3c(NC4CCOC4)ncnc32)[C@H](O)[C@@H]1O (stereo partly drawn) [Dimethyl-thiocarbamic acid (2R,3S,4R)-3,4-dihydroxy-5-{6-[(R)-(tetrahydro-furan-3-yl)amino]-purin-9-yl}-tetrahydro-furan-2-ylmethyl ester]"
5,72,"O[C@@H]1[C@@H](COC(=S)NC2CCCC2)OC(n2cnc3c(NC4CCOC4)ncnc32)[C@@H]1O (stereo partly drawn) [Cyclopentyl-thiocarbamic acid (2R,3S,4R)-3,4-dihydroxy-5-{6-[(R)-(tetrahydro-furan-3-yl)amino]-purin-9-yl}-tetrahydro-furan-2-ylmethyl ester]"
6,36,"CC(C)NC(=S)OC[C@H]1OC(n2cnc3c(NC4CCOC4)ncnc32)[C@H](O)[C@@H]1O (stereo partly drawn) [Isopropyl-thiocarbamic acid (2R,3S,4R)-3,4-dihydroxy-5-{6-[(R)-(tetrahydro-furan-3-yl)amino]-purin-9-yl}-tetrahydro-furan-2-ylmethyl ester]"
7,45,"CNC(=S)OC[C@H]1OC(n2cnc3c(NC4CCOC4)ncnc32)[C@H](O)[C@@H]1O (stereo partly drawn) [Methyl-thiocarbamic acid (2R,3S,4R)-3,4-dihydroxy-5-{6-[(R)-(tetrahydro-furan-3-yl)amino]-purin-9-yl}-tetrahydro-furan-2-ylmethyl ester]"
8,157,"CCCCNC(=S)OC[C@H]1OC(n2cnc3c(NC4CCOC4)ncnc32)[C@H](O)[C@@H]1O (stereo partly drawn) [Butyl-thiocarbamic acid (2R,3S,4R)-3,4-dihydroxy-5-{6-[(R)-(tetrahydro-furan-3-yl)amino]-purin-9-yl}-tetrahydro-furan-2-ylmethyl ester]"
9,235,"CCCNC(=O)OC[C@H]1OC(n2cnc3c(NC4CCOC4)ncnc32)[C@H](O)[C@@H]1O (stereo partly drawn) [Propyl-carbamic acid (2R,3S,4R)-3,4-dihydroxy-5-{6-[(R)-(tetrahydro-furan-3-yl)amino]-purin-9-yl}-tetrahydro-furan-2-ylmethyl ester]"
10,12,"O[C@@H]1[C@@H](COC(=S)NCc2ccccc2)OC(n2cnc3c(NC4CCOC4)ncnc32)[C@@H]1O (stereo partly drawn) [Benzyl-thiocarbamic acid (2R,3S,4R)-3,4-dihydroxy-5-{6-[(R)-(tetrahydro-furan-3-yl)amino]-purin-9-yl}-tetrahydro-furan-2-ylmethyl ester]"
11,33,"CCNC(=S)OC[C@H]1OC(n2cnc3c(NC4CCOC4)ncnc32)[C@H](O)[C@@H]1O (stereo partly drawn) [Ethyl-thiocarbamic acid (2R,3S,4R)-3,4-dihydroxy-5-{6-[(R)-(tetrahydro-furan-3-yl)amino]-purin-9-yl}-tetrahydro-furan-2-ylmethyl ester]"
12,524,"C=CCNC(=O)OC[C@H]1OC(n2cnc3c(NC4CCOC4)ncnc32)[C@H](O)[C@@H]1O (stereo partly drawn) [Allyl-carbamic acid (2R,3S,4R)-3,4-dihydroxy-5-{6-[(R)-(tetrahydro-furan-3-yl)amino]-purin-9-yl}-tetrahydro-furan-2-ylmethyl ester]"
13,157,"O[C@@H]1[C@@H](COC(=S)NC2CC2)OC(n2cnc3c(NC4CCOC4)ncnc32)[C@@H]1O (stereo partly drawn) [Cyclopropyl-thiocarbamic acid (2R,3S,4R)-3,4-dihydroxy-5-{6-[(R)-(tetrahydro-furan-3-yl)amino]-purin-9-yl}-tetrahydro-furan-2-ylmethyl ester]"
14,148,"O[C@@H]1[C@@H](COC(=S)NC2CCC2)OC(n2cnc3c(NC4CCOC4)ncnc32)[C@@H]1O (stereo partly drawn) [Cyclobutyl-thiocarbamic acid (2R,3S,4R)-3,4-dihydroxy-5-{6-[(R)-(tetrahydro-furan-3-yl)amino]-purin-9-yl}-tetrahydro-furan-2-ylmethyl ester]"

# Continued, molecule first:
row,Structure (SMILES),Ki [nM]
1,"CNC(=O)OC[C@H]1OC(n2cnc3c(NC4CCOC4)nc(Cl)nc32)[C@H](O)[C@@H]1O (stereo partly drawn) [Methyl-carbamic acid (2R,3S,4R)-5-{2-chloro-6-[(R)-(tetrahydro-furan-3-yl)amino]-purin-9-yl}-3,4-dihydroxy-tetrahydro-furan-2-ylmethyl ester]",96
2,"CCNC(=S)OC[C@H]1OC(n2cnc3c(NC4CCOC4)nc(Cl)nc32)[C@H](O)[C@@H]1O (stereo partly drawn) [Ethyl-thiocarbamic acid (2R,3S,4R)-5-{2-chloro-6-[(R)-(tetrahydro-furan-3-yl)amino]-purin-9-yl}-3,4-dihydroxy-tetrahydro-furan-2-ylmethyl ester]",55
3,"O=C(NC1CCC1)OC[C@H]1OC(n2cnc3c(NC4CCOC4)ncnc32)[C@H](O)[C@@H]1O (stereo partly drawn) [Cyclobutyl-carbamic acid (2R,3S,4R)-3,4-dihydroxy-5-{6-[(R)-(tetrahydro-furan-3-yl)amino]-purin-9-yl}-tetrahydro-furan-2-ylmethyl ester]",306
4,"O=C(NC1CCCC1)OC[C@H]1OC(n2cnc3c(NC4CCOC4)nc(Cl)nc32)[C@H](O)[C@@H]1O (stereo partly drawn) [Cyclopentyl-carbamic acid (2R,3S,4R)-5-{2-chloro-6-[(R)-(tetrahydro-furan-3-yl)amino]-purin-9-yl}-3,4-dihydroxy-tetrahydro-furan-2-ylmethyl ester]",226
5,"O[C@@H]1[C@@H](COC(=S)NC2CCCCC2)OC(n2cnc3c(NC4CCOC4)ncnc32)[C@@H]1O (stereo partly drawn) [Cyclohexyl-thiocarbamic acid (2R,3S,4R)-3,4-dihydroxy-5-{6-[(R)-(tetrahydro-furan-3-yl)amino]-purin-9-yl}-tetrahydro-furan-2-ylmethyl ester]",253
6,"O=C(NCc1ccccc1)OC[C@H]1OC(n2cnc3c(NC4CCOC4)ncnc32)[C@H](O)[C@@H]1O (stereo partly drawn) [Benzyl-carbamic acid (2R,3S,4R)-3,4-dihydroxy-5-{6-[(R)-(tetrahydro-furan-3-yl)amino]-purin-9-yl}-tetrahydro-furan-2-ylmethyl ester]",1830
7,"O=C(NC1CC1)OC[C@H]1OC(n2cnc3c(NC4CCOC4)ncnc32)[C@H](O)[C@@H]1O (stereo partly drawn) [Cyclopropyl-carbamic acid (2R,3S,4R)-3,4-dihydroxy-5-{6-[(R)-(tetrahydro-furan-3-yl)amino]-purin-9-yl}-tetrahydro-furan-2-ylmethyl ester]",209
8,"CC(C)NC(=O)OC[C@H]1OC(n2cnc3c(NC4CCOC4)ncnc32)[C@H](O)[C@@H]1O (stereo partly drawn) [Isopropyl-carbamic acid (2R,3S,4R)-3,4-dihydroxy-5-{6-[(R)-(tetrahydro-furan-3-yl)amino]-purin-9-yl}-tetrahydro-furan-2-ylmethyl ester]",78
9,"CCCCNC(=O)OC[C@H]1OC(n2cnc3c(NC4CCOC4)ncnc32)[C@H](O)[C@@H]1O (stereo partly drawn) [Butyl-carbamic acid (2R,3S,4R)-3,4-dihydroxy-5-{6-[(R)-(tetrahydro-furan-3-yl)amino]-purin-9-yl}-tetrahydro-furan-2-ylmethyl ester]",1410
10,"O=C(NC1CCCCC1)OC[C@H]1OC(n2cnc3c(NC4CCOC4)ncnc32)[C@H](O)[C@@H]1O (stereo partly drawn) [Cyclohexyl-carbamic acid (2R,3S,4R)-3,4-dihydroxy-5-{6-[(R)-(tetrahydro-furan-3-yl)amino]-purin-9-yl}-tetrahydro-furan-2-ylmethyl ester]",584
11,"CN(C)C(=O)OC[C@H]1OC(n2cnc3c(NC4CCOC4)ncnc32)[C@H](O)[C@@H]1O (stereo partly drawn) [Dimethyl-carbamic acid (2R,3S,4R)-3,4-dihydroxy-5-{6-[(R)-(tetrahydro-furan-3-yl)amino]-purin-9-yl}-tetrahydro-furan-2-ylmethyl ester]",238
12,"CNC(=S)OC[C@H]1OC(n2cnc3c(NC4CCOC4)nc(Cl)nc32)[C@H](O)[C@@H]1O (stereo partly drawn) [Methyl-thiocarbamic acid (2R,3S,4R)-5-{2-chloro-6-[(R)-(tetrahydro-furan-3-yl)amino]-purin-9-yl}-3,4-dihydroxy-tetrahydro-furan-2-ylmethyl ester]",71
